{
  "source": "patent US20220372008A1",
  "about": "(VIDYASIRIMEDHI INSTITUTE OF SCIENCE AND TECHNOLOGY, priority 2019, published 2022)",
  "molecules": {"B1": {"name": "HadA G513T: modified HadA, thermostable dehalogenase with amino acid sequence SEQ ID NO.1 (protein, listed as Escherichia coli)", "chain": "MIRTGTQYLESLNDGRNVWVGNEKIDNVATHPKTRDYAQRHADFYDLHHRPDLQDVMTYIDEGGQRRAMQWFGHRDKEQLRRKRKYHETVMREMAGASFPRTPDVNNYVLTTYIDDPAPWETQSIGDDGHIKAGKIVDFIRYAREHDLNCAPQFVDPQMDRSNPDAQERSPGLRVVEKNEKGIVVNGVKAIGTGVAFADWIHIGVFFRPGIPGDQVIFAATPVNTPGVTIVCRESLVKDDKVEHPLAAQGDELDGMTVFENVFIPWSHVFHIGNPNHAKLYPQRVFDWLHYHALIRQMVRAELVAGLAVLITEHIGTNKIPAVQTRVAKLIGFHQAMLAHLIASEELGFHTPGGHYKPNILIYDFGRALYLENFSQMIYELVDLSGRSALIFASEDQWNDDKLNGWFERMNNGPVGRPHDRVKIGRVIRDLFLTDWGSRLFVFENFNGTPLQGIRMLTMQRAEFSGSGPYGKLARQVCGIDSAVTDDTEYRKTADYAKALDAARHQEEVALATAMAI"}},
  "key": {"firefly luciferase": {"molecular_target": "firefly luciferase (Photinus pyralis, UniProt P08659)", "sequence (P08659 whole entry)": "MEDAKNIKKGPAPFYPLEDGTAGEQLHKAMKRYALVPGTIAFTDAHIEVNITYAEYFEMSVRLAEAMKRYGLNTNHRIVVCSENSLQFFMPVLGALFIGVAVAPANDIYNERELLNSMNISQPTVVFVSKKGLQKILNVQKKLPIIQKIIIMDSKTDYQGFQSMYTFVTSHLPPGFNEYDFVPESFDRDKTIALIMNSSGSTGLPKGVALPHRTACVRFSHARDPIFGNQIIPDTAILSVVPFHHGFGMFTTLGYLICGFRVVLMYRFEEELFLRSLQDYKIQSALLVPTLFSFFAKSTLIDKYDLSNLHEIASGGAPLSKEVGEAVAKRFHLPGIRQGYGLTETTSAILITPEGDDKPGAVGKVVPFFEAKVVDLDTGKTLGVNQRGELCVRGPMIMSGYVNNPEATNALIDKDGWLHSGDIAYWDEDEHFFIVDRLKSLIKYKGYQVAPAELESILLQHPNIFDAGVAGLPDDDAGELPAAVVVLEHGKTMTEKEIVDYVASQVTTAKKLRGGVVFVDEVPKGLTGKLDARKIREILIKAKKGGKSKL", "description": "The pure luciferin and the purified luciferin derivatives, which are derived from the synthesis and purification methods, reacts with the firefly luciferase, and then the emission wavelength is measured.\nThe reaction between the luciferin derivatives of the present disclosure and the firefly luciferase can emit the light."}, "[1]": {"format": "physicochemical", "method": "The term “thermostable dehalogenase” used herein refers to the dehalogenase or HadA, which is reengineered or modified, particularly modified on the surface of a wild-type dehalogenase or HadA. The reengineered or modified dehalogenase or HadA, which is called a thermostable HadA or HadA G513T, has an improvement on a temperature stability. The catalytic efficiency of the thermostable HadA or HadA G513T is in a broader range of temperature from 25-50° C. Further, the wild-type dehalogenase or HadA is a dechlorinating monooxygenase that can catalyze the elimination of nitro- and halides (F, Cl, Br, I) group from nitro- and halogenated phenols substrate. The wild type HadA can catalyze the reaction at 25° C. for 24 h. Whereas the reaction at higher temperature (>30° C.), the half-life of wild type HadA is dramatically decrease for 20 min. In accordance with various embodiments, the present disclosure relates to luciferin derivatives and a method for synthesis of the luciferin derivatives.\nThe thermostable dehalogenase is a modified HadA, particularly HadA G513T (Thermostable dehalogenase; HadA G513T), containing an amino acid sequence, which is set forth in SEQ ID NO.1 as shown in FIG. 8. The thermostable dehalogenase or HadA G513T is able to catalyze in a range of temperature from 25-50° C. and its half-life at 50° C. is 200 min. However, […]"}},
  "data": [
    {"molecule": "7′-bromoluciferin", "values": [
      {"measurement": "emitting wavelength as substrate for the firefly luciferase", "setting": "firefly luciferase; spectrofluorometer under bioluminescent mode", "value": 604, "unit": "nm"},
      {"measurement": "maximum emission wavelength", "setting": "firefly luciferase; substrate for wild-type firefly luciferase, FIG. 5", "value": 604, "unit": "nm"}
    ]},
    {"molecule": "B1", "values": [
      {"measurement": "half-life", "setting": "[1]", "value": 3.33, "unit": "h"}
    ]}
  ]
}
